Patent publication US20240358671A1, “COMPOSITIONS AND METHODS TO TREAT SKIN DISORDERS” (THE TRUSTEES OF INDIANA UNIVERSITY, priority 2021, published 2024)
Entries after “also recorded” stand apart in the source; their conditions may differ.

What was measured:
P. aeruginosa = conditions: cited from earlier work
[1] = system: Staphylococcus epidermidis; conditions: cited from earlier work
Propionibacterium acnes = conditions: cited from earlier work
Streptococcus pyogenes = conditions: cited from earlier work
[2] = system: Staphylococcus epidermidis biofilm; conditions: cited from earlier work
S. aureus = conditions: cited from earlier work
Micrococcus luteus = conditions: cited from earlier work
ABCA12 = ABCA12 in human keratinocytes after PAwt biofilm infection; assay type: cell-based
Procedure: (§1) Bacterial biofilms were co-cultured with human keratinocytes cells following the method adapted from Anderson. The confluent cultures of human keratinocytes cells were inoculated with bacterial cultures of PAwt or PAΔcer (10^5 CFU/ml) in antibiotic free culture media. The plates were incubated for 1 h at 37° C. and 5% CO2. Post 1 h, fresh DMEM (without antibiotics) supplemented with 0.4% arginine was added to the plate. Post 7-8 hours, cells were harvested. The co-culture media was filtered using 0.2 μm filters and used for ceramidastin experiment. Human keratinocytes were treated with conditioned media (25% v/v) of cells co-cultured with PAwt biofilm containing ceramidastin (10 μg/ml) for 24 h.
(§2) OCT embedded wound tissue blocks were sectioned using a cryostat. […] To enable fluorescence detection, sections were incubated with appropriate Alexa Fluor® 488 (green, Molecular probes), Alexa Fluor® […] (red, Molecular probes) conjugated secondary antibodies. […] Mosaic images were collected using collected using a Zeiss Axiovert 200 M, inverted fluorescence microscopy or confocal microscopy (LSM880). Image analysis was performed using Zen (Zeiss) software to quantitate fluorescence intensity (fluorescent pixels).

PA bcdase = target: T1, PA bcdase (Pseudomonas aeruginosa, UniProt Q9I596); assay: Ex vivo extracted skin lipids treated with biofilm-conditioned media, ceramides by LC-MS/MS; assay type: biochemical; conditions: conditioned media contained ceramidastin
T1 construct: cutaneous lipids exposed to biofilm-infected keratinocyte conditioned media (CM); endogenous in cells; host or cells: Wild-type Pseudomonas aeruginosa (PAwt) biofilm co-cultured with human keratinocytes; the conditioned medium holds the enzyme
Procedure: FIGS. 8A-8N illustrate ceramide depletion. FIGS. 8A-8L Ceramide depletion, as measured by LC-MS/MS, in cutaneous lipids exposed to biofilm-infected keratinocyte conditioned media (CM). As indicated, to test the significance of PA bcdase, the CM contained ceramidastin (CST). Lipids were extracted and analyzed using an untargeted approach as described in Materials and Methods. The resultant data were analyzed using R 3.3. Wilcoxon Rank-Sum test was used for all group analyses and Kruskal-Wallis followed by Benjamini Hochberg correction was performed for multiple comparisons with significance at p<0.05. Skin ceramides have been denoted using the standard nomenclature following the format of fatty acyl type, sphingoid backbone type, and sphingoid backbone length-fatty acyl length. NS=Cer 2 (with non-hydroxy fatty acid, sphingoid backbone); NP=Cer 3 (non-hydroxy fatty acid, phytopshingoid backbone); NH=Cer 8 (non-hydroxy fatty acid, 6-hydroxy sphingoid backbone); NDS=Cer 10 (non-hydroxy fatty acid, dihydroxy sphingoid backbone); AS=Cer 5 (α-hydroxy fatty acid, sphingoid backbone); AP=Cer 6 (α-hydroxy fatty acid, phytosphingoid backbone). The Y-axis values are in mol %. (M) Digital wound images and planimetry shown. […]
Untargeted lipidomics was undertaken as previously published. […] Finally, lipids were analyzed via the use of MS/MSALL approach as previously disclosed. […]

Human keratinocytes (HK) = assay: Human keratinocytes-Pseudomonas biofilm co-culture conditioned media: keratinocyte ceramide by anti-ceramide immunostaining; assay type: cell-based; conditions: HK treated with conditioned media (25% v/v) of cells co-cultured with PA biofilm containing ceramidastin 10 μg/ml, 24 h
Excerpt: FIGS. 7A-7U relate to ceramide depletion and ceramidastin rescue. FIGS. 7A-7S: Ceramide depletion, as measured by LC-MS/MS, in cutaneous lipids. Following exposure to bacteria as applicable, lipids were extracted and analyzed via a targeted approach. Data thus obtained were subjected to analysis by ANOVA using R3.5.3 to specifically identify those lipids with significant differences between the three groups. Those with significance as tested by ANOVA were subjected to post hoc analysis using Tukey-HSD with a FDR cutoff of 0.05. Lipids with group differences that passed these thresholds were illustrated as box plots. Skin ceramides have been denoted using the standard nomenclature following the format of fatty acyl type, sphingoid backbone type, and sphingoid backbone length-fatty acyl length. […]
as §2

PPARδ [3] = assay: PPARδ expression in human keratinocyte biofilm infection; assay type: cell-based; conditions: in the presence of ceramidastin
Procedure: as §1
Western blot was performed using antibodies against anti-PPARδ (Thermo Scientific, 1:500), anti-CerS3 (Origene, 1:500). β-actin (Sigma Aldrich, 1:5000) was used as housekeeping.

PPARδ [4] = assay: PPARδ trans-activity assay; assay type: cell-based; conditions: human keratinocytes; 5 μmol long chain ceramides, 48 h
Procedure: Human keratinocytes cells were treated with 5 μmol of long chain ceramides, C18:0 and C24:0 (Avanti Polar Lipids Inc., Alabama) using Lipofectamine LTX (Thermo Fisher Scientific). Cells were collected 48 h post transfection and nuclear protein was extracted using Nuclear Extraction Kit (RayBiotech) as per manufacturer's protocol. PPARδ trans-activity was measured using PPAR delta Transcription Factor Assay Kit (abcam) as per manufacturer's instructions.

PPARδ promoter = PPARδ promoter assay; assay type: cell-based; conditions: human keratinocytes; PPARδ promoter reporter; 5 μmol long chain ceramides, 48 h
Procedure: PPARδ promoter assay was done as described previously. mNP-Luc (PPARdelta promoter) was a gift (Addgene plasmid #16532; http://n2t.net/addgene:16532; RRID:Addgene_16532. Human keratinocytes cells were co-transfected with the PPARδ promoter reporter construct and treated with 5 μmol of long chain ceramides, C:18 and C:24 (Avanti Polar Lipids Inc., Alabama) using Lipofectamine™ LTX Reagent with PLUS™ Reagent (Thermo Fisher Scientific). Media were collected 48 h post transfection and the secreted GLuc and SEAP activities were measured with the Secrete-Pair Dual Luminescence Assay Kit (GeneCopoeia) according to the manufacturer's protocol using the Berthold Luminometer (Berthold Technologies). Normalized promoter activity has been presented as the ratio of GLuc to SEAP activities.

CerS3 = CerS3 expression in human keratinocytes treated with PPARδ agonist or antagonist, qPCR; assay type: cell-based; conditions: 1 μmol/ml
Excerpt: FIGS. 11A-11O illustrate additional experimental results. FIG. 11A: Vector map of PPARδ promoter luciferase reporter. FIGS. 11B-11C: PPARδ drives CerS3 expression. CerS3 expression in human keratinocytes (HK) treated with PPARδ agonist (GW501516, 1 μmol/ml) or antagonist (GSK0660, 1 μmol/ml) as measured by qPCR. Data presented as mean±SEM (n=5). FIGS. 11D-11F: Upregulation of DNA methyl transferases in S-1-P treated HK. Data presented as mean±SEM (n=8). FIGS. 11G-11J: Induction of histone deacetylases in S-1P treated HK. Data presented as mean±SEM (n=8). FIGS. 11K-11N) Other histone deacetylases in S-1P treated HK. […] Data presented as mean±SEM, (n=8). FIG. 11O: miR-106b expression in HK treated with S-1-P (5 μmol/ml). Data presented as mean±SEM (n=8).

T1 sequence (Q9I596 25-670): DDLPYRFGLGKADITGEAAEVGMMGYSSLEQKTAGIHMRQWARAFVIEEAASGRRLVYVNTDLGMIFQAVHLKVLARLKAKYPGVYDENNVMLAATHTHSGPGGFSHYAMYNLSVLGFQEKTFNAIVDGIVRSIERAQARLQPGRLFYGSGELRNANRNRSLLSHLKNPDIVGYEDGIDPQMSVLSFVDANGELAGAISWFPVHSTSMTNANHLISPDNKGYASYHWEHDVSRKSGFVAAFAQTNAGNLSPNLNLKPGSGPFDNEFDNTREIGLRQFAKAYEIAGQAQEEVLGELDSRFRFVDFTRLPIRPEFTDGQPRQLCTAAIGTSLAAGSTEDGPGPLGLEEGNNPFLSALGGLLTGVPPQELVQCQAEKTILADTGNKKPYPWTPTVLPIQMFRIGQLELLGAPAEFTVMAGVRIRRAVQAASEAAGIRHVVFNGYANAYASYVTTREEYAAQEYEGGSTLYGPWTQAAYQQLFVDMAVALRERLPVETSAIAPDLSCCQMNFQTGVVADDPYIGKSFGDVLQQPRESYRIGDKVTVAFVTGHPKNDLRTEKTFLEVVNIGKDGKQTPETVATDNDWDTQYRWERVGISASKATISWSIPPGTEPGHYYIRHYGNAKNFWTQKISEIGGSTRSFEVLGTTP

CCCCCCCCCCCCC/C=C/[C@@H](O)[C@@H](N)CO [Sphingosine]
killing of P. aeruginosa (P. aeruginosa): moderately killed
killing of Staphylococcus epidermidis [1]: effectively killed
killing of Propionibacterium acnes (Propionibacterium acnes): effectively killed
killing of Streptococcus pyogenes (Streptococcus pyogenes): effectively killed
Staphylococcus epidermidis biofilm on orthopedic implant materials [2]: prevented and eliminated
killing of S. aureus (S. aureus): effectively killed
killing of Micrococcus luteus (Micrococcus luteus): effectively killed

CCCCCCC(O)C1C2=C(CC(C(O)C(O)C/C=C/CO)CC3=C(C(=O)OC3=O)C1O)C(=O)OC2=O (centres unmarked) [Ceramidastin]
loss of ABCA12 in response to biofilm infection by PAwt (ABCA12): prevented
ceramides in extracted skin lipids treated with biofilm-conditioned media (PA bcdase): rescue of ceramides
keratinocyte ceramide after PAwt biofilm infection (Human keratinocytes (HK)): rescued keratinocyte ceramide against loss; also recorded: rescued depletion of keratinocyte ceramide
PPARδ expression blunted by biofilm infection (PPARδ [3]): rescued

CCCCCCCCCCCCC/C=C/[C@@H](O)[C@H](CO)NC(=O)CCCCCCCCCCCCCCCCC [C18]
PPARδ transactivation (PPARδ [4]): induced
PPARδ transcription (PPARδ promoter): induced

Cc1cc(SCc2sc(-c3ccc(C(F)(F)F)cc3)nc2C)ccc1OCC(=O)O [GW501516]
CerS3 expression (CerS3): increased expression of CerS3

COC(=O)c1sccc1S(=O)(=O)Nc1ccc(Nc2ccccc2)cc1OC [GSK0660]
CerS3 expression (CerS3): blunted the expression of CerS3

CCCCCCCCCCCCC/C=C/[C@@H](O)[C@H](CO)NC(=O)CCCCCCCCCCCCCCCCCCCCCCC [C24]
PPARδ transactivation (PPARδ [4]): induced
PPARδ transcription (PPARδ promoter): induced
